What was measured:
Human GPR40 [1] = biological target: T1, Human GPR40 (Homo sapiens, UniProt O14842); assay: FLIPR assay (agonist-induced calcium mobilization); assay type: cell-based; parameters: expressed in transfected cells; settings: GPR40/CHO NFAT BLA cells
Method: (§1) Human and mouse GPR40 stable cell-lines were generated in CHO cells stably expressing NFAT BLA (Beta-lactamase). A human GPR40 stable cell-line was generated in HEK cells stably expressing the aequorin expressing reporter. The expression plasmids were transfected using lipofectamine (Life Technologies) following manufacturer's instructions. Stable cell-lines were generated following drug selection.
FLIPR (Fluorimetric Imaging Plate Reader, Molecular Devices) assays were performed to measure agonist-induced calcium mobilization of the stable clones. For the FLIPR assay, one day before assay, GPR40/CHO NFAT BLA cells were seeded into black-wall-clear-bottom 384-well plates (Costar) at 1.4×10e4 cells/20 μL medium/well. The cells were incubated with 20 μl/well of the assay buffer (HBSS, 0.1% BSA, 20 mM HEPES, 2.5 mM probenecid, pH 7.4) containing 8 μM fluo-4, AM, 0.08% pluronic acid at room temperature for 100 minutes. Fluorescence output was measured using FLIPR. Compounds were dissolved in DMSO and diluted to desired concentrations with assay buffer. 13.3 μL/well of compound solution was added.

Human GPR40 [2] = biological target: T1, Human GPR40; assay: Inositol Phosphate Turnover (IP1) Assay 1; assay type: cell-based; parameters: expressed in transfected cells; host or cells: HEK cells stably expressing the aequorin reporter; settings: HEK cells stably expressing human GPR40, 96-well, 3H-inositol labeling, SPA beads
Method: as §1
The assay was performed in 96-well format. HEK cells stably expressing human GPR40 were plated to be 60-80% confluent within 72 h. After 72 h, the plates were aspirated and the cells washed with inositol-free DMEM (ICN). The wash media was replaced with 150 μL of 3H-inositol labeling media (inositol-free media containing 0.4% human albumin or 0.4% mouse albumin, 1× pen/strep antibiotics, glutamine, 25 mM HEPES to which was added 3H-myo-inositol NEN #NET114A 1 mCi/mL, 25 Ci/mmol diluted 1:150 in loading media with a final specific radioactivity of 1 μCi/150 μL). Alternatively, the human and mouse albumin can be added after the overnight labeling step before the addition of LiCl.
The assay was typically run the next day after 18 h labeling. On the day of the assay, 5 μL of 300 mM LiCl was added to all wells and incubated at 37 degrees for 20 min 0.75 μL of 200× compounds were added and incubated with the cells for 60 min at 37 degrees. The media was then aspirated off and the assay terminated with the addition of 60 μL 10 mM formic acid. The cells were lysed for 60 min at room temperature. 15-30 μL of lysate was mixed with 70 μL/1 mg YSi SPA beads (Amersham) in clear bottom Isoplates. The plates were shaken for 2 h at room temperature. Beads were allowed to settle and the plates were counted in the Wallac Microbeta.

T1 sequence (O14842 whole entry): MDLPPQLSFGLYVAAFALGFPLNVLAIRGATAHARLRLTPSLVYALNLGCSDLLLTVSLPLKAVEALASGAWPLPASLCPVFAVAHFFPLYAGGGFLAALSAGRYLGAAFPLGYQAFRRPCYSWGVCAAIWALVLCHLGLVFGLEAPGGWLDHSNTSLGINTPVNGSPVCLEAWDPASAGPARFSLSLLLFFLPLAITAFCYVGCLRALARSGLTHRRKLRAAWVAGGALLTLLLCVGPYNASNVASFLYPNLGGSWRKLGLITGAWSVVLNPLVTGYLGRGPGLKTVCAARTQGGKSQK

Cc1cc(OCCCS(C)(=O)=O)ccc1-c1cc(COc2cc3c(cn2)[C@H]2[C@@H](C3)[C@@H]2C(=O)O)c(F)cc1C(F)(F)F [Example 2, (5aR,6S,6aS)-3-((4-fluoro-2′-methyl-4′-(3-(methyl-sulfonyl)-propoxy)-6-(tri-fluoromethyl)-[1,1′-biphenyl]-3-yl)methoxy)-5,5a,6,6a-tetrahydrocyclo-propa[4,5]cyclopenta [1,2-c]pyridine-6-carboxylic acid]
EC50 (Human GPR40 [1]): 5.75 nM | EC50 (Human GPR40 [2]): 2.98 nM

Cc1cc(OCCC(C)(C)O)ccc1-c1cc(COc2cc3c(cn2)[C@H]2[C@@H](C3)[C@@H]2C(=O)O)c(F)cc1C(F)(F)F [Example 1]
EC50 (Human GPR40 [1]): 16.7 nM | EC50 (Human GPR40 [2]): 9.89 nM

CC(C)(O)CCOc1ccc(-c2cc(COc3cc4c(cn3)[C@H]3[C@@H](C4)[C@@H]3C(=O)O)c(F)cc2C(F)(F)F)c(F)c1 [Example 7, (5aR,6S,6aS)-3-((2′,4-difluoro-4′-(3-hydroxy-3-methylbutoxy)-6-(trifluoro-methyl)-[1,1′-biphenyl]-3-yl)methoxy)-5,5a,6,6a-tetrahydrocyclopropa [4,5]cyclopenta[1,2-c] pyridine-6-carboxylic acid]
EC50 (Human GPR40 [1]): 11.2 nM | EC50 (Human GPR40 [2]): 11.4 nM

CC(C)(O)CCOc1ccc(-c2cc(COc3cc4c(cn3)[C@H]3[C@@H](C4)[C@@H]3C(=O)O)c(F)cc2C(F)(F)F)c(C(F)F)c1 [Example 13, (5aR,6S,6aS)-3-((2'-(difluoromethyl)-4-fluoro-4'-(3-hydroxy-3-methyl-butoxy)-6-(trifluoromethyl)-[1,1'-biphenyl]-3-yl)-methoxy)-5,5a,6,6a-tetra-hydrocyclo-propa[4,5]cyclopenta [1,2-c]pyridine-6-carboxylic acid]
EC50 (Human GPR40 [1]): 9.66 nM | EC50 (Human GPR40 [2]): 5.94 nM

O=C(O)[C@H]1[C@@H]2Cc3cc(OCc4cc(-c5c(F)cc(OCCC6(O)COC6)cc5F)c(C(F)(F)F)cc4F)ncc3[C@@H]21 [Example 9, (5aR,6S,6aS)-3-((2′,4,6′-trifluoro-4′-(2-(3-hydroxy-oxetan-3-yl)ethoxy)-6-(trifluoromethyl)-[1,1′-biphenyl]-3-yl)methoxy)-5,5a,6,6a-tetrahydrocyclopropa [4,5]cyclopenta[1,2-c]pyridine-6-carboxylic acid]
EC50 (Human GPR40 [1]): 6.89 nM | EC50 (Human GPR40 [2]): 11.1 nM

Cc1cc(OCCC(O)C(C)(C)O)cc(C)c1-c1cc(COc2cc3c(cn2)[C@H]2[C@@H](C3)[C@@H]2C(=O)O)c(F)cc1F (stereo partly drawn) [Example 18, (5aR,6S,6aS)-3-((4′-((3,4-dihydroxy-4-methylpentyl)oxy)-4,6-difluoro-2′,6′-dimethyl-[1,1′-biphenyl]-3-yl)methoxy)-5,5a,6,6a-tetrahydrocycloprop[4,5]cyclopenta[1,2-c]pyridine-6-carboxylic acid]
EC50 (Human GPR40 [2]): 19.2 nM

CC(O)(CCOc1ccc(-c2cc(COc3cc4c(cn3)[C@H]3[C@@H](C4)[C@@H]3C(=O)O)c(F)cc2C(F)(F)F)cc1)C(F)F (stereo partly drawn) [Example 12, (5aR,6S,6aS)-3-((4′-(4,4-difluoro-3-hydroxy-3-methylbutoxy)-4-fluoro-6-(trifluoromethyl)-[1,1′-biphenyl]-3-yl)methoxy)-5,5a,6,6a-tetrahydrocyclopropa[4,5]cyclopenta[1,2-c]pyridine-6-carboxylic acid]
EC50 (Human GPR40 [1]): 12.5 nM | EC50 (Human GPR40 [2]): 20.3 nM

CC(C)(O)CCOc1ccc(-c2cc(COc3cc4c(cn3)[C@H]3[C@@H](C4)[C@@H]3C(=O)O)c(F)cc2C(F)F)cc1F [Example 11, (5aR,6S,6aS)-3-((6-(di-fluoro-methyl)-3',4-di-fluoro-4'-(3-hydroxy-3-methyl-butoxy)-[1,1'-biphenyl]-3-yl)methoxy)-5,5a,6,6a-tetrahydro-cyclopropa[4,5]cyclo-penta[1,2-c]pyridine-6-carboxylic acid]
EC50 (Human GPR40 [1]): 16.7 nM | EC50 (Human GPR40 [2]): 17.6 nM

CC(C)(O)CCOc1ccc(-c2cc(COc3cc4c(cn3)[C@H]3[C@@H](C4)[C@@H]3C(=O)O)c(F)cc2C(F)(F)F)cc1 [Example 5, (5aR,6S,6aS)-3-((4-fluoro-4′-(3-hydroxy-3-methylbutoxy)-6-(trifluoromethyl)-[1,1′-biphenyl]-3-yl)methoxy)-5,5a,6,6a-tetrahydrocyclopropa[4,5]cyclopenta[1,2-c]pyridine-6-carboxylic acid]
EC50 (Human GPR40 [1]): 24.9 nM | EC50 (Human GPR40 [2]): 6.24 nM

Cc1nc(OCCC(C)(O)C(F)F)ccc1-c1cc(COc2cc3c(cn2)[C@H]2[C@@H](C3)[C@@H]2C(=O)O)c(F)cc1C(F)(F)F (stereo partly drawn) [Example 16, (5aR,6S,6aS)-3-((5-(6-(4,4-difluoro-3-hydroxy-3-methyl-butoxy)-2-methyl-pyridin-3-yl)-2-fluoro-4-(trifluoro-methyl)-benzyl)-oxy)-5,5a,6,6a-tetrahydro-cyclo-propa[4,5]cyclopenta [1,2-c]pyridine-6-carboxylic acid]
EC50 (Human GPR40 [2]): 10.4 nM

CC(C)(O)CCOc1ncc(-c2cc(COc3cc4c(cn3)[C@H]3[C@@H](C4)[C@@H]3C(=O)O)c(F)cc2C(F)(F)F)cc1F [Example 15, (5aR,6S,6aS)-3-((2-fluoro-5-(5-fluoro-6-(3-hydroxy-3-methylbutoxy)pyridin-3-yl)-4-(trifluoromethyl)benzyl)oxy)-5,5a,6,6a-tetrahydrocyclopropa[4,5]cyclopenta[1,2-c]pyridine-6-carboxylic acid]
EC50 (Human GPR40 [1]): 4.88 nM | EC50 (Human GPR40 [2]): 7.97 nM

Cc1cc(OCCC2(O)COC2)ccc1-c1cc(COc2cc3c(cn2)[C@H]2[C@@H](C3)[C@@H]2C(=O)O)c(F)cc1C(F)(F)F [Example 14, (5aR,6S,6aS)-3-((4-fluoro-4′-(2-(3-hydroxyoxetan-3-yl)ethoxy)-2′-methyl-6-(trifluoromethyl)-[1,1′-biphenyl]-3-yl)methoxy)-5,5a,6,6a-tetrahydrocyclopropa[4,5]cyclopenta[1,2-c]pyridine-6-carboxylic acid]
EC50 (Human GPR40 [1]): 10.4 nM | EC50 (Human GPR40 [2]): 5.54 nM

CC(C)(O)CCOc1ccc(-c2cc(COc3cc4c(cn3)[C@H]3[C@@H](C4)[C@@H]3C(=O)O)c(F)cc2C(F)(F)F)cc1F [Example 6, (5aR,6S,6aS)-3-((3′,4-difluoro-4′-(3-hydroxy-3-methyl-butoxy)-6-(trifluoro-methyl)-[1,1′-biphenyl]-3-yl)methoxy)-5,5a,6,6a-tetrahydrocyclopropa [4,5]cyclopenta[1,2-c] pyridine-6-carboxylic acid]
EC50 (Human GPR40 [1]): 10.9 nM | EC50 (Human GPR40 [2]): 14.7 nM

CS(=O)(=O)CCCOc1ccc(-c2cc(COc3cc4c(cn3)[C@H]3[C@@H](C4)[C@@H]3C(=O)O)c(F)cc2C(F)(F)F)c(F)c1 [Example 8, (5aR,6S,6aS)-3-((2′,4-difluoro-4′-(3-(methyl-sulfonyl)-propoxy)-6-(trifluoromethyl)-[1,1′-biphenyl]-3-yl)methoxy)-5,5a,6,6a-tetrahydro-cyclopropa[4,5]cyclo-penta[1,2-c]pyridine-6-carboxylic acid]
EC50 (Human GPR40 [1]): 9.2 nM | EC50 (Human GPR40 [2]): 6.54 nM

Cc1cc(OCCC(C)(C)O)ccc1-c1cc(COc2cc3c(cn2)[C@H]2[C@@H](C3)[C@@H]2C(=O)O)c(F)cc1C(F)F [Example 4, (5aR,6S,6aS)-3-((6-(difluoro-methyl)-4-fluoro-4′-(3-hydroxy-3-methyl-butoxy)-2′-methyl-[1,1′-biphenyl]-3-yl)methoxy)-5,5a,6,6a-tetrahydrocyclo-propa[4,5] cyclopenta[1,2-c] pyridine-6-carboxylic acid]
EC50 (Human GPR40 [1]): 14.4 nM | EC50 (Human GPR40 [2]): 5.25 nM

CC(C)(O)CCOc1cc(F)c(-c2cc(COc3cc4c(cn3)[C@H]3[C@@H](C4)[C@@H]3C(=O)O)c(F)cc2C(F)(F)F)c(F)c1 [Example 10, (5aR,6S,6aS)-3-((2′,4,6′-trifluoro-4′-(3-hydroxy-3-methylbutoxy)-6-(trifluoromethyl)-[1,1′-biphenyl]-3-yl)methoxy)-5,5a,6,6a-tetrahydrocyclo-propa[4,5]cyclopenta [1,2-c]pyridine-6-carboxylic acid]
EC50 (Human GPR40 [1]): 6.4 nM | EC50 (Human GPR40 [2]): 27.2 nM

Cc1nc(OCCC(C)(C)O)ccc1-c1cc(COc2cc3c(cn2)[C@H]2[C@@H](C3)[C@@H]2C(=O)O)c(F)cc1C(F)(F)F [Example 3, (5aR,6S,6aS)-3-((2-fluoro-5-(6-(3-hydroxy-3-methyl-butoxy)-2-methyl-pyridin-3-yl)-4-(trifluoromethyl)-benzyl)-oxy)-5,5a, 6,6a-tetrahydro-cyclopropa[4,5] cyclopenta[1,2-c] pyridine-6-carboxylic acid]
EC50 (Human GPR40 [1]): 1.52 nM | EC50 (Human GPR40 [2]): 4.95 nM

From patent US9932311B2, “Antidiabetic tricyclic compounds” (Merck Sharp & Dohme Corp., priority 2013, dated 2018)
